# Literature values as cited in patent publication US9993551B2, “Combination therapies of EGFR inhibitors” (NOVARTIS AG, priority 2014, dated 2018).
# How the values were obtained:
# [1] = test system: EGFR mutant (L858R, ex19del and T790M) cancer models; conditions: in vitro and in vivo
# WT EGFR = WT EGFR (Homo sapiens, UniProt P00533)
# [2] = test system: EGFR activating and acquired resistance mutants (L858R, ex19del and T790M); conditions: targeted covalent irreversible EGFR inhibitor
# Sequence of WT EGFR (P00533 25-1210): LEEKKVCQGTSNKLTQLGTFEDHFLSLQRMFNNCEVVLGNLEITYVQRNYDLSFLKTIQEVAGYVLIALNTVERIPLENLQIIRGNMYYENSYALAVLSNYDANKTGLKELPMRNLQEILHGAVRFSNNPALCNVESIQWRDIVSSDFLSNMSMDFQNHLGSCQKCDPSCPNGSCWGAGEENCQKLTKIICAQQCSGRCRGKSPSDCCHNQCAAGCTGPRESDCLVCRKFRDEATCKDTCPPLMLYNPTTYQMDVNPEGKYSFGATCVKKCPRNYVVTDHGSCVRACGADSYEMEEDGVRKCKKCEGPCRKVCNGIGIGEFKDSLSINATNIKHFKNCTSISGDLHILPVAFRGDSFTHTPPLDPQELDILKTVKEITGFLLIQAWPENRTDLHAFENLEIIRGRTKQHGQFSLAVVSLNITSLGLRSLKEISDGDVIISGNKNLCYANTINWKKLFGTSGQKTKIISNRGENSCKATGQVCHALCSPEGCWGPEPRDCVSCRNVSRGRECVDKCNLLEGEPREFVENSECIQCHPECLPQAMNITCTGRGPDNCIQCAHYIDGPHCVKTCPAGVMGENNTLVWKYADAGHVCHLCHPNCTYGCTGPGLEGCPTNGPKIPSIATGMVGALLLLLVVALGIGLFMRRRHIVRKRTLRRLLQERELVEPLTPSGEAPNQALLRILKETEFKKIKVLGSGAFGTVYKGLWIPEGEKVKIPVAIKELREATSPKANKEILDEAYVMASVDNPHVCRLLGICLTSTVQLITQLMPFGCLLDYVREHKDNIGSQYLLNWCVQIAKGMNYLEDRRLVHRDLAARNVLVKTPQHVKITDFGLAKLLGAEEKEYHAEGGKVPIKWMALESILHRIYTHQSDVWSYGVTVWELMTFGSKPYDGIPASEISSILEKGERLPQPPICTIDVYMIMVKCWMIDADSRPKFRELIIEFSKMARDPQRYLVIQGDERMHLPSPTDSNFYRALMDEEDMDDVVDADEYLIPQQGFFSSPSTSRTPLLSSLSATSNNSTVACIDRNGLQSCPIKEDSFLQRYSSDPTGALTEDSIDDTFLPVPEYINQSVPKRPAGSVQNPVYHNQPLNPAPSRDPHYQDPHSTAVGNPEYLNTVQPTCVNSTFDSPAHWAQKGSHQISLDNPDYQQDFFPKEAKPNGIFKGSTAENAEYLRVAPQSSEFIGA
smiles,measurement,setting,value
"Cc1cc(C(=O)Nc2nc3cccc(Cl)c3n2[C@@H]2CCCCN(C(=O)/C=C/CN(C)C)C2)ccn1 [EGF816, (R,E)-N-(7-chloro-1-(1-(4-(dimethylamino)but-2-enoyl)azepan-3-yl)-1H-benzo[d]imidazol-2-yl)-2-methylisonicotinamide]",efficacy in EGFR mutant cancer models,[1],significant efficacy
same,effect on WT EGFR,WT EGFR,sparing WT EGFR
same,inhibition of mutant EGFR,[2],selectively inhibits
